Results: patent publication US20220194960A1, “WEE1 INHIBITOR AND PREPARATION AND USE THEREOF” (SHOUYAO HOLDINGS (BEIJING) CO., LTD., priority 2019, published 2022)

Assays:
WEE1 kinase = biological target: T1, WEE1 kinase (Homo sapiens, UniProt P30291); test: WEE1 kinase binding assay (LanthaScreen EU); conditions: WEE1 kinase 20 nM, Kinase Tracer 178 100 nM, 23° C. for 60 min, read-out: WEEI (IC50)
T1 construct: purchased Carna bioscience
Protocol: 1. Assay for WEE1 Kinase Inhibitory Activity (IC50) on Compounds
The WEE1 kinase binding assay was established and optimized with LanthaScreen EU for the determination of the activity of compounds. 10 mM compounds were subjected to ten-fold gradient dilution in 100% DMSO (6 concentrations in total), 5 μL of diluent from each concentration was added to 45 μL of reaction buffer (50 mM HEPES (4-hydroxyethylpiperazine ethanesulfonic acid), pH 7.5, 10 mM MgCl2 (magnesium chloride), 1 mM EGTA (ethylene glycol diethyl ether diamine tetraacetic acid), 0.01% Brij-35 (polyoxyethylene lauryl ether)) for blending. On this basis, 2 μL diluent from each concentration was added to 48 μL of reaction buffer for blending as a 4*compound (final concentrations of 1000, 100, 10, 1, 0.1, 0 nM) for later use. Reaction buffer was used to formulate 4*WEE1 kinase (purchased from Carna bioscience, a final concentration of 20 nM), 4*LanthaScreen EU-anti-GST Antibody (purchased from Invitrogen, PV5594, a fuel concentration of 2 nM), and 4*Kinase Tracer 178 (purchased from Invitrogen, PV5593, a final concentration of 100 nM). 2.5 μL of 4*compound was added to a 384-well plate (OptiPlate-384, purchased from PerkinElmer), followed by adding 2.5 μL of 4*WEE1 kinase, standing for 5 min at room temperature. Then 2.5 μL of 4*LanthaScreen EU-anti-GST Antibody was added followed by 2.5 μL of 4*Kinase Tracer 178. The reaction was started by centrifugation (a total reaction volume of 10 μL). The 384-well plate was wrapped with tin foil paper and placed in an incubator at 23° C. for 60 min. Fluorescence values (excitation at 320 nm, detecting emitted light at 665 nm and 615 nm, and a ratio of the two as enzyme activity) were read on Envision (purchased from PerkinElmer). The enzyme activity of each compound was measured at 6 concentrations, and the IC50 value of the compound was calculated using GraFit6.0 software (Erithacus Software).
The aforementioned “*” refers to multiplying, representing multiples.

[1] = system: Human non-small cell lung cancer cells NCI-H1299; test: NCI-H1299 cell proliferation inhibition (CellTiter-Glo); type: cell-based; conditions: cultured 3 days, table head NCI-H1975, method NCI-H1299
Protocol: 2. Determination of Cell Proliferation Activity of Compounds:
NCI-H1299 cell proliferation inhibition screening method was established using CellTiter-fib detection reagent from Promega.
Human non-small cell lung cancer cells NCI-H1299 were cultured in 25 cm^2 or 75 cm^2 plastic tissue culture flasks (Corning) filled with DMEM (Gibco) medium supplemented with 10% fetal bovine serum (Hyclone) under 37° C., 95% air, and 5% CO2, and subcultured 2-3 times a week.
Cells were seeded at 1000 cells/well in a 96-well cell culture plate (Corning), 195 μL/well, and cultured under 37° C., 95% air, and 5% CO2. The next day test compound was added: 10 mM compounds (dissolved in DMSO) were subjected to 3-fold gradient dilution in DMSO, 2 μL of diluent from each concentration was added to 48 μL of serum-fret medium, and finally 5 μL of the diluted compound was added to the plate seeded with cells. The final concentration of DMSO in the cell culture was 0.1% and the foul concentration of the test compound was 0.3 nM-10 μM. The cells were cultured at 37° C. for 3 days.

T1 sequence (P30291 whole entry): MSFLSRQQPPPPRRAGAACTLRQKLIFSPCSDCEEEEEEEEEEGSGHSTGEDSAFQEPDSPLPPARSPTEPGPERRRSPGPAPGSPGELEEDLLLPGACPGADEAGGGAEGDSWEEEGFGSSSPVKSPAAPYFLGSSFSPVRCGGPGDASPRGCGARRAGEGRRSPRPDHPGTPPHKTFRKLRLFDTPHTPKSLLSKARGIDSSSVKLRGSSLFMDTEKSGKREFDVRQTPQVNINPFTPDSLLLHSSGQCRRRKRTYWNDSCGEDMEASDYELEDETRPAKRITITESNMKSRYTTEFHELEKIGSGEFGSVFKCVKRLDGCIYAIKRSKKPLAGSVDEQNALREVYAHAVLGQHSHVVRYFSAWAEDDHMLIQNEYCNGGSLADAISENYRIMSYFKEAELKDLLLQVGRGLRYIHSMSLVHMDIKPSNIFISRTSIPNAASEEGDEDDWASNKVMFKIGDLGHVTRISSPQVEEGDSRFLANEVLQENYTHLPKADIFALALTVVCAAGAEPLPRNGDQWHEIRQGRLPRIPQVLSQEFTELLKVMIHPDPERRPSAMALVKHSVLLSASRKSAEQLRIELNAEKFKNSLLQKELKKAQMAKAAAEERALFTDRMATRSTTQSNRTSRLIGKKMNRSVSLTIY

## CN1CCN(C2CCN(c3ccc(Nc4ncc5c(F)c(C6CC6)n(-c6cccc(N=S(C)(C)=O)n6)c5n4)cc3F)CC2)CC1 [Example 47, ((6-(5-fluoro-2-((3-fluoro-4-(4-(4-methylpiperazin-1-yl)piperidin-1-yl)phenyl)amino)-6-cyclopropyl-7H-pyrrolo[2,3-d]pyrimidin-7-yl)pyridin-2-yl)imino)dimethyl-λ^6-sulfanone]
WEE1 kinase
  IC50: 0.97 nM
[1]; Homo sapiens, 72 h
  IC50: 63 nM

## CN1CCN(C2CCN(c3ccc(Nc4ncc5cc(C6CC6)n(-c6cccc(N=S(C)(C)=O)n6)c5n4)cc3F)CC2)CC1 [Example 48, ((6-(2-((3-fluoro-4-(4-(4-methylpiperazin-1-yl)piperidin-1-yl)phenyl)amino)-6-cyclopropyl-7H-pyrrolo[2,3-d]pyrimidin-7-yl)pyridin-2-yl)imino)dimethyl-λ^6-sulfanone]
WEE1 kinase
  IC50: 0.8 nM
[1]; Homo sapiens, 72 h
  IC50: 42 nM

## Cc1cc(Nc2ncc3cc(C4CC4)n(-c4cccc(N=S(C)(C)=O)n4)c3n2)ccc1N1CCC(N2CCN(C)CC2)CC1 [Example 52, ((6-(2-((3-methyl-4-(4-(4-methylpiperazin-1-yl)piperidin-1-yl)phenyl)amino)-6-cyclopropyl-7H-pyrrolo[2,3-d]pyrimidin-7-yl)pyridin-2-yl)imino)dimethyl-λ^6-sulfanone]
WEE1 kinase
  IC50: 0.63 nM
[1]; Homo sapiens, 72 h
  IC50: 56 nM

## CN1[C@@H]2CC[C@H]1CN(c1ccc(Nc3ncc4cc(C5CC5)n(-c5cccc(N=S(C)(C)=O)n5)c4n3)cc1)C2 [Example 81, ((6-(6-cyclopropyl-2-((4-((1R,5S)-8-methyl-3,8-diazabicyclo[3.2.1]octan-3-yl)phenyl)amino)-7H-pyrrolo[2,3-d]pyrimidin-7-yl)pyridin-2-yl)imino)dimethyl-λ^6-sulfanone]
WEE1 kinase
  IC50: 0.33 nM
[1]; Homo sapiens, 72 h
  IC50: 38 nM

## CN1[C@@H]2CC[C@H]1CN(c1ccc(Nc3ncc4c(F)c(C5CC5)n(-c5cccc(N=S(C)(C)=O)n5)c4n3)cc1)C2 [Example 82, ((6-(6-cyclopropyl-5-fluoro-2-((4-((1R,5S)-8-methyl-3,8-diazabicyclo[3.2.1]octan-3-yl)phenyl)amino)-7H-pyrrolo[2,3-d]pyrimidin-7-yl)pyridin-2-yl)imino)dimethyl-Ab-sulfanone]
WEE1 kinase
  IC50: 0.58 nM
[1]; Homo sapiens, 72 h
  IC50: 64 nM

## CN1CC2(CCN(c3ccc(Nc4ncc5cc(C6CC6)n(-c6cccc(N=S(C)(C)=O)n6)c5n4)cc3)CC2)C1 [Example 85, ((6-(6-cyclopropyl-2-((4-(2-methyl-2,7-diazaspiro[3.5]nonan-7-yl)phenyl)amino)-7H-pyrrolo[2,3-d]pyrimidin-7-yl)pyridin-2-yl)imino)dimethyl-λ^6-sulfanone]
WEE1 kinase
  IC50: 0.85 nM
[1]; Homo sapiens, 72 h
  IC50: 79 nM

## CN1CC2(CCN(c3ccc(Nc4ncc5c(F)c(C6CC6)n(-c6cccc(N=S(C)(C)=O)n6)c5n4)cc3)CC2)C1 [Example 86, ((6-(6-cyclopropyl-5-fluoro-2-((4-(2-methyl-2,7-diazaspiro[3.5]nonan-7-yl)phenyl)amino)-7H-pyrrolo[2,3-d]pyrimidin-7-yl)pyridin-2-yl)imino)dimethyl-λ^6-sulfanone]
WEE1 kinase
  IC50: 0.54 nM
[1]; Homo sapiens, 72 h
  IC50: 60 nM

## COc1cc(Nc2ncc3cc(C4CC4)n(-c4cccc(N=S(C)(C)=O)n4)c3n2)ccc1N1CCC(N2CCN(C)CC2)CC1 [Example 87, ((6-(6-cyclopropyl-2-((3-methoxy-4-(4-(4-methylpiperazin-1-yl)piperidin-1-yl)phenyl)amino)-7H-pyrrolo[2,3-d]pyrimidin-7-yl)pyridin-2-yl)imino)dimethyl-λ^6-sulfanone]
WEE1 kinase
  IC50: 0.98 nM
[1]; Homo sapiens, 72 h
  IC50: 90 nM

## CC1(O)CN(N2CCN(c3ccc(Nc4ncc5cc(C6CC6)n(-c6cccc(N=S(C)(C)=O)n6)c5n4)cc3)CC2)C1 [Example 98, ((6-(6-cyclopropyl-2-((4-(4-(3-hydroxy-3-methylazetidin-1-yl)piperazin-1-yl)phenyl)-amino)-7H-pyrrolo[2,3-d]pyrimidin-7-yl)pyridin-2-yl)imino)dimethyl-λ^6-sulfanone]
WEE1 kinase
  IC50: 0.79 nM
[1]
  IC50: 84 nM

## CS(C)(=O)=Nc1cccc(-n2c(C3CC3)cc3cnc(Nc4ccc(N5CC6CCC(C5)N6)c(F)c4)nc32)n1 [Example 101, ((6-(2-((4-(3,8-diazabicyclo[3.2.1]octan-3-yl)-3-fluorophenyl)amino)-6-cyclopropyl-7H-pyrrolo[2,3-d]pyrimidin-7-yl)pyridin-2-yl)imino)dimethyl-λ^6-sulfanone]
WEE1 kinase
  IC50: 0.7 nM
[1]; Homo sapiens, 72 h
  IC50: 66 nM

## CN(C)CCN1CCN(c2ccc(Nc3ncc4cc(C5CC5)n(-c5cccc(N=S(C)(C)=O)n5)c4n3)cc2)CC1 [Example 108]
WEE1 kinase
  IC50: 0.61 nM
[1]; Homo sapiens, 72 h
  IC50: 70 nM

## CCCc1cc2cnc(Nc3ccc(N4CCN(C)CC4)cn3)nc2n1-c1cccc(N=S(C)(C)=O)n1 [Example 110, ((6-(6-propyl-2-((5-(4-methylpiperazin-1-yl)pyridin-2-yl)amino)-7H-pyrrolo[2,3-d]pyrimidin-7-yl)pyridin-2-yl)imino)dimethyl-λ^6-sulfanone]
WEE1 kinase
  IC50: 0.69 nM
[1]
  IC50: 88 nM

## CCCc1cc2cnc(Nc3ccc(N4CCC5(CCN(C)CC5)CC4)cc3)nc2n1-c1cccc(N=S(C)(C)=O)n1 [Example 123, ((6-(6-propyl-2-((4-(9-methyl-3,9-diazaspiro[5.5]undecan-3-yl)phenyl)amino)-7H-pyrrolo[2,3-d]pyrimidin-7-yl)pyridin-2-yl)imino)dimethyl-λ^6-sulfanone]
WEE1 kinase
  IC50: 0.3 nM
[1]
  IC50: 44 nM

## CN1CCC2(CC1)CCN(c1ccc(Nc3ncc4c(F)c(C5CC5)n(-c5cccc(N=S(C)(C)=O)n5)c4n3)cc1)CC2 [Example 126, ((6-(6-cyclopropyl-5-fluoro-2-((4-(9-methyl-3,9-diazaspiro(5.5)undecan-3-yl)phenyl)amino)-7H-pyrrolo[2,3-d]pyrimidin-7-yl)pyridin-2-yl)imino)dimethyl-λ^6-sulfanone]
WEE1 kinase
  IC50: 0.48 nM
[1]; Homo sapiens, 72 h
  IC50: 53 nM

## COC(=O)CN1CCN(c2ccc(Nc3ncc4cc(C5CC5)n(-c5cccc(N=S(C)(C)=O)n5)c4n3)cc2)CC1 [Example 127]
WEE1 kinase
  IC50: 0.66 nM
[1]; Homo sapiens, 72 h
  IC50: 70 nM

## C=C(C)c1cc2cnc(Nc3ccc(N4CCN(C)CC4)cc3)nc2n1-c1cccc(N=S(C)(C)=O)n1 [Example 135, dimethyl((6-(2-((4-(4-methylpiperazin-1-yl)phenyl)amino)-6-(prop-1-en-2-yl)-7H-pyrrolo[2,3-d]pyrimidin-7-yl)pyridin-2-yl)imino)-λ^6-sulfanone]
WEE1 kinase
  IC50: 0.68 nM
[1]; Homo sapiens, 72 h
  IC50: 74 nM

## CCCc1cc2cnc(Nc3ccc(N4CCC(N5CCN(C)CC5)CC4)cc3)nc2n1-c1cccc(N=S(C)(C)=O)n1 [Example 136, dimethyl((6-(2-((4-(4-(4-methylpiperazin-1-yl)piperidin-1-yl)phenyl)amino)-6-propyl-7H-pyrrolo[2,3-d]pyrimidin-7-yl)pyridin-2-yl)imino)-λ^6-sulfanone]
WEE1 kinase
  IC50: 0.9 nM
[1]; Homo sapiens, 72 h
  IC50: 87 nM

## Cc1cc2cnc(Nc3ccc(N4CCC5(CCN(C)CC5)CC4)cc3)nc2n1-c1cccc(N=S(C)(C)=O)n1 [Example 139, ((6-(6-methyl-2-((4-(9-methyl-3,9-diazaspiro[5.5]undecan-3-yl)phenyl)amino)-7H-pyrrolo[2,3-d]pyrimidin-7-yl)pyridin-2-yl)imino)dimethyl-λ^6-sulfanone]
WEE1 kinase
  IC50: 0.69 nM
[1]
  IC50: 64 nM

## Cc1cc2cnc(Nc3ccc(N4CCC5(CCN(C)CC5)CC4)cc3)nc2n1-c1cccc(C(C)(C)O)n1 [Example 147, 2-(6-(6-methyl-2-((4-(9-methyl-3,9-diazaspiro[5.5]undecan-3-yl)phenyl)amino)-7H-pyrrolo[2,3-d]pyrimidin-7-yl)pyridin 2-yl)propan-2-ol]
WEE1 kinase
  IC50: 0.91 nM
[1]; Homo sapiens, 72 h
  IC50: 85 nM

## Cc1cc2cnc(Nc3ccc(N4CCC(N5CCN(C)CC5)CC4)cc3)nc2n1-c1cccc(N=S(C)(C)=O)n1 [Example 150]
WEE1 kinase
  IC50: 0.22 nM
[1]; Homo sapiens, 72 h
  IC50: 32 nM
